Among the data in patent publication US20060264460A1 (Wyeth, priority 2005, published 2006) are IC50 values, retold here.

By IC50 is commonly meant the concentration at which inhibition is half-maximal.

The structures appear in SMILES notation. A value given as a limit tells only on which side of the number the result lay.

This assay deals with T1, human Cot/Tpl2 kinase (Homo sapiens, UniProt P41279).
T1 construct: human Cot/Tpl2 kinase construct encoding residues 30-398; 6His (N); made in house; host or cells: Sf9 insect cells, baculovirus system (BD Biosciences)
T1 sequence (P41279 30-398): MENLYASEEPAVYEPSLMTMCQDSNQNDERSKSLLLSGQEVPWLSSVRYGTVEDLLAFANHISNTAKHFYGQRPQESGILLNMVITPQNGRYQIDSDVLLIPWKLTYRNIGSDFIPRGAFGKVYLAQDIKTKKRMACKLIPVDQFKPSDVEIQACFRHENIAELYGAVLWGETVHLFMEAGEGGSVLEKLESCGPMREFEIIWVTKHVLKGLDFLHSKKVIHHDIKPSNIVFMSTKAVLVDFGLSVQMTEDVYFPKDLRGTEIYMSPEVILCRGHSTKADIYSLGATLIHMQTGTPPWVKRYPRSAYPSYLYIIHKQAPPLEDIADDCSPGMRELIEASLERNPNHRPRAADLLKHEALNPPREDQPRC
The assay can be described thus: Tpl2/Cot kinase assay: GST-MEK1 phosphorylation detected by ELISA (DELFIA Eu). In kind it is biochemical. Conditions: Table 2; Tpl2/Cot kinase, GST-MEK1 substrate, 50 uM ATP. The method, boiled down:
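Substrate phosphorylation (GST-MEK1 Ser217/221) quantified by DELFIA europium ELISA, yielding IC50 values. Reaction: 1 h at 30° C, pH 7.2 MOPS buffer, 50 uM ATP, 35 nM GST-MEK1, 0.4 nM monomeric His-Tpl2 purified from Sf9 cells, compounds at 1% final DMSO; stopped with EDTA.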
A general note: In an ELISA, binding on a coated surface is turned into a signal by an enzyme label.
`N#Cc1cnc2c(O)cc(N)cc2c1Nc1ccc(F)c(Cl)c1` [Example 421] gave an IC50 of 10600 nM.

For `N#Cc1c(Nc2ccc(F)c(Cl)c2)c2cc(NCc3cccc[n+]3[O-])ccc2[nH]c1=O` [Example 422], the IC50 was > 40000 nM.

As to `N#Cc1cnc2c(Br)cc(NCc3ccc(OC(F)(F)C(F)F)cc3)cc2c1Nc1ccc(F)c(Cl)c1` [Example 424], the IC50 is > 40000 nM.

In the case of `Cn1nc(C(C)(C)C)cc1Nc1c(C#N)cnc2ccc(N)cc12` [Example 425], the IC50 was > 40000 nM.

`Cn1ccnc1CNc1cc(Cl)c2ncc(C#N)c(Nc3ccc(F)c(Cl)c3)c2c1` [Example 426]: the IC50 was 3.2 nM.

In turn, `N#Cc1cnc2c(Cl)cc(NCc3cc[nH]n3)cc2c1Nc1ccc(F)c(Cl)c1` [Example 427] displayed an IC50 of 47 nM. This IC50 lies about 15-fold higher than the previous one.

With `N#Cc1cnc2c(Br)cc(NCc3ccc(C(O)(C(F)(F)F)C(F)(F)F)cc3)cc2c1Nc1ccc(F)c(Cl)c1` [Example 428], the IC50 is > 40000 nM.

As for `Cc1cc(CNc2cc(Cl)c3ncc(C#N)c(Nc4ccc(F)c(Cl)c4)c3c2)n[nH]1` [Example 429], the IC50 is 100 nM. In other words, the sub-micromolar range.

Turning to `Cc1cc(CNc2cc(Cl)c3ncc(C#N)c(Nc4ccc(F)c(Cl)c4)c3c2)n(C)n1` [Example 430], the IC50 stood at 120 nM.

`Cc1nc(CNc2cc(Cl)c3ncc(C#N)c(Nc4ccc(F)c(Cl)c4)c3c2)c(C)[nH]1` [Example 431] showed an IC50 of 220 nM. Against the preceding compound, the IC50 is about 1.8-fold higher.

For `COCc1nc(CNc2cc(Cl)c3ncc(C#N)c(Nc4ccc(F)c(Cl)c4)c3c2)c[nH]1` [Example 432], the IC50 stood at 260 nM.

`N#Cc1cnc2c(Br)cc(NCc3ccnn3-c3ccccc3)cc2c1Nc1ccc(F)c(Cl)c1` [Example 433] registered an IC50 of 250 nM.

For `N#Cc1cnc2c(Br)cc(NCc3cnn(-c4ccccc4)n3)cc2c1Nc1ccc(F)c(Cl)c1` [Example 434], the IC50 is > 40000 nM.

On to `C[Si](C)(C)c1n[nH]nc1CNc1cc(Br)c2ncc(C#N)c(Nc3ccc(F)c(Cl)c3)c2c1` [Example 435], for which inhibition was half-maximal at 21 nM (IC50).

`N#Cc1cnc2c(Br)cc(NCc3cncn3O)cc2c1Nc1ccc(F)c(Cl)c1` [Example 436] gave an IC50 of 150 nM. Against the preceding compound, the IC50 is about 7.1-fold higher.

For the compound `N#Cc1cnc2c(F)cc(NCc3cncn3O)cc2c1Nc1ccc(F)c(Cl)c1` [Example 437], the IC50 was 200 nM.

As to `N#Cc1cnc2c(Cl)cc(NCc3cncn3O)cc2c1Nc1ccc(F)c(Cl)c1` [Example 438], the IC50 worked out at 110 nM. Compared with the last compound, the IC50 is about 1.8-fold lower.

Regarding `Cn1cncc1CNc1cc(Cl)c2ncc(C#N)c(Nc3ccc(F)c(Cl)c3)c2c1` [Example 439], the IC50 was found to be 220 nM.

In turn, `N#Cc1cnc2c(Cl)cc(NCc3csnn3)cc2c1Nc1ccc(F)c(Cl)c1` [Example 440] had an IC50 of 49 nM.

The compound `Cc1[nH]c(C2CCCC2)nc1CNc1cc(Cl)c2ncc(C#N)c(Nc3ccc(F)c(Cl)c3)c2c1` [Example 441] displayed an IC50 of 1900 nM. Against the preceding compound, the IC50 is about 39-fold higher.

As to `COC(=O)c1cnc(CNc2cc(Cl)c3ncc(C#N)c(Nc4ccc(F)c(Cl)c4)c3c2)n1C` [Example 442], it took 3400 nM to reach half-maximal inhibition (IC50). Against the preceding compound, the IC50 is about 1.8-fold higher.

`CCCc1[nH]cnc1CNc1cc(Cl)c2ncc(C#N)c(Nc3ccc(F)c(Cl)c3)c2c1` [Example 443] registered a 50% inhibitory concentration (IC50) of 25 nM.

In turn, `Cc1[nH]c(-c2cccnc2)nc1CNc1cc(Cl)c2ncc(C#N)c(Nc3ccc(F)c(Cl)c3)c2c1` [Example 444] returned an IC50 of 20600 nM.

`COc1ccsc1CNc1cc(Cl)c2ncc(C#N)c(Nc3ccc(F)c(Cl)c3)c2c1` [Example 445]: it took 1100 nM to reach half-maximal inhibition (IC50).

With `Cn1nccc1CNc1cc(Br)c2ncc(C#N)c(Nc3ccc(F)c(Cl)c3)c2c1` [Example 446], the IC50 is 98 nM.

On to `N#Cc1cnc2c(Cl)cc(NCC(=O)c3ccccc3)cc2c1Nc1ccc(F)c(Cl)c1` [Example 447], for which the IC50 is 870 nM.

`N#Cc1cnc2c(Br)cc(NCc3n[nH]c4c3CCCC4)cc2c1Nc1ccc(F)c(Cl)c1` [Example 448] registered an IC50 of 370 nM.

For `Cc1cc(CNc2cc(Br)c3ncc(C#N)c(Nc4ccc(F)c(Cl)c4)c3c2)nn1C` [Example 449], the half-maximal inhibitory concentration (IC50) turned out to be 5500 nM. Against the preceding compound, the IC50 is about 15-fold higher.

In turn, `CC(C)(CNc1cc(Cl)c2ncc(C#N)c(Nc3ccc(F)c(Cl)c3)c2c1)N1CCOCC1` [Example 450] came in with an IC50 of 2400 nM.

`N#Cc1cnc2c(I)cc(NCc3cnc[nH]3)cc2c1Nc1ccc(F)c(Cl)c1` [Example 452] registered an IC50 of 51 nM. This IC50 is about 47-fold lower than that of the compound before.

As to `Cn1nc(CNc2cc(Br)c3ncc(C#N)c(Nc4ccc(F)c(Cl)c4)c3c2)cc1-c1ccccc1` [Example 453], the IC50 was > 40000 nM.

Consider `N#Cc1cnc2c(Br)cc(NCc3cc(-c4ccccc4)[nH]n3)cc2c1Nc1ccc(F)c(Cl)c1` [Example 454], for which the IC50 was 330 nM.

Compound `N#Cc1cnc2c(Br)cc(NCc3cc(-c4ccncc4)[nH]n3)cc2c1Nc1ccc(F)c(Cl)c1` [Example 455] displayed an IC50 of 13500 nM.

Compound `Cn1ncc(Br)c1CNc1cc(Br)c2ncc(C#N)c(Nc3ccc(F)c(Cl)c3)c2c1` [Example 456] registered an IC50 of 1000 nM.

As to `C=Cc1cc(NCc2cnc[nH]2)cc2c(Nc3ccc(F)c(Cl)c3)c(C#N)cnc12` [Example 457], the IC50 came out at 170 nM. This IC50 lies about 5.9-fold lower than the previous one.

`N#Cc1cnc2c(Cl)cc(NCc3cccc(O)c3O)cc2c1Nc1ccc(F)c(Cl)c1` [Example 458] yielded an IC50 of 1300 nM. Compared with the last compound, the IC50 is about 7.6-fold higher.

On to `CC(=O)c1cc(NCc2cnc[nH]2)cc2c(Nc3ccc(F)c(Cl)c3)c(C#N)cnc12` [Example 459], for which the midpoint of inhibition, the IC50, lay at 23 nM.

In the case of `CN(C)CC#Cc1ncn(COCc2ccccc2)c1CNc1cc(Cl)c2ncc(C#N)c(Nc3ccc(F)c(Cl)c3)c2c1` [Example 460], the IC50 stood at 2000 nM.

On to `CN(C)CCCc1nc[nH]c1CNc1cc(Cl)c2ncc(C#N)c(Nc3ccc(F)c(Cl)c3)c2c1` [Example 461], for which 130 nM corresponded to half-maximal inhibition (IC50).

`N#Cc1cnc2c(CCO)cc(NCc3cnc[nH]3)cc2c1Nc1ccc(F)c(Cl)c1` [Example 462] showed an IC50 of 1200 nM.

In turn, `CC(O)c1cc(NCc2cnc[nH]2)cc2c(Nc3ccc(F)c(Cl)c3)c(C#N)cnc12` (centres unmarked) [Example 463] showed an IC50 of 260 nM.

The compound `N#Cc1cnc2c(CO)cc(NCc3cnc[nH]3)cc2c1Nc1ccc(F)c(Cl)c1` [Example 464] yielded an IC50 of 570 nM.

The compound `N#Cc1cnc2c(Cl)cc(NCC(=O)O)cc2c1Nc1ccc(F)c(Cl)c1` [Example 465] returned an IC50 of 51 nM. Compared with the last compound, the IC50 is about 11-fold lower.

Regarding `Cn1nnc(CNc2cc(Cl)c3ncc(C#N)c(Nc4ccc(F)c(Cl)c4)c3c2)n1` [Example 466], half-maximal inhibition (IC50) required 230 nM.

Compound `Cn1nnc(CCNc2cc(Cl)c3ncc(C#N)c(Nc4ccc(F)c(Cl)c4)c3c2)n1` [Example 467] showed an IC50 of 1200 nM. This IC50 lies about 5.2-fold higher than the previous one.

Compound `CN1CCN(C(=O)CNc2cc(Cl)c3ncc(C#N)c(Nc4ccc(F)c(Cl)c4)c3c2)CC1` [Example 468] yielded an IC50 of 360 nM.

For the compound `Cn1nnnc1CCNc1cc(Cl)c2ncc(C#N)c(Nc3ccc(F)c(Cl)c3)c2c1` [Example 469], 170 nM corresponded to half-maximal inhibition (IC50).

As to `N#Cc1cnc2c(Cl)cc(NCC(=O)N3CCNCC3)cc2c1Nc1ccc(F)c(Cl)c1` [Example 470], the IC50 worked out at 420 nM. Against the preceding compound, the IC50 is about 2.5-fold higher.

As to `CON(C)C(=O)CNc1cc(Cl)c2ncc(C#N)c(Nc3ccc(F)c(Cl)c3)c2c1` [Example 471], the half-inhibitory concentration (IC50) was > 40000 nM.

Regarding `CONC(=O)CNc1cc(Cl)c2ncc(C#N)c(Nc3ccc(F)c(Cl)c3)c2c1` [Example 472], the IC50 stood at 160 nM.

In the case of `CNC(=O)CNc1cc(Cl)c2ncc(C#N)c(Nc3ccc(F)c(Cl)c3)c2c1` [Example 473], the IC50 stood at 470 nM.

Consider `CN(C)C(=O)CNc1cc(Cl)c2ncc(C#N)c(Nc3ccc(F)c(Cl)c3)c2c1` [Example 474], for which the half-inhibitory concentration (IC50) was found to be 1700 nM.

In the case of `CCOC(=O)CNc1cc(Cl)c2ncc(C#N)c(Nc3ccc(F)c(Cl)c3)c2c1` [Example 475], the midpoint of inhibition, the IC50, lay at 1400 nM.

In turn, `CCc1[nH]cnc1CNc1cc(Cl)c2ncc(C#N)c(Nc3ccc(F)c(Cl)c3)c2c1` [Example 476] returned an IC50 of 16 nM.

Consider `N#Cc1cnc2c(Br)cc(N(Cc3cn(CCN4CCOCC4)nn3)Cc3cn(CCN4CCOCC4)nn3)cc2c1Nc1ccc(F)c(Cl)c1` [Example 477], for which the IC50 is > 40000 nM.

In turn, `Cn1cnc(CNc2cc(Cl)c3ncc(C#N)c(Nc4ccc(F)c(Cl)c4)c3c2)n1` [Example 478] displayed an IC50 of 530 nM.

`N#Cc1cnc2c(Br)cc(NCc3cn(C45CC6CC(CC(C6)C4)C5)nn3)cc2c1Nc1ccc(F)c(Cl)c1` [Example 479] yielded an IC50 of 1700 nM.

Turning to `CN(C)CCCn1cc(CNc2cc(Br)c3ncc(C#N)c(Nc4ccc(F)c(Cl)c4)c3c2)nn1` [Example 480], the concentration for half-maximal inhibition (IC50) came out at 20 nM.

As to `CN(C)CCn1cc(CNc2cc(Br)c3ncc(C#N)c(Nc4ccc(F)c(Cl)c4)c3c2)nn1` [Example 481], the IC50 is 24 nM.

`N#Cc1cnc2c(Br)cc(NCc3cncn3CCN3CCOCC3)cc2c1Nc1ccc(F)c(Cl)c1` [Example 482]: it took 160 nM to reach half-maximal inhibition (IC50). Against the preceding compound, the IC50 is about 6.7-fold higher.

Compound `N#Cc1cnc2c(Cl)cc(NCc3nc[nH]n3)cc2c1Nc1ccc(F)c(Cl)c1` [Example 483] came in with an IC50 of 100 nM. This IC50 lies about 1.6-fold lower than the previous one.

Turning to `N#Cc1cnc2c(Br)cc(NCc3nc[nH]n3)cc2c1Nc1ccc(F)c(Cl)c1` [Example 484], the IC50 came to 110 nM.

For the compound `Cn1cnc(CNc2cc(Br)c3ncc(C#N)c(Nc4ccc(F)c(Cl)c4)c3c2)n1` [Example 486], the IC50 was found to be 200 nM.

Regarding `CC(O)Cn1cc(CNc2cc(Br)c3ncc(C#N)c(Nc4ccc(F)c(Cl)c4)c3c2)nn1` (centres unmarked) [Example 487], half-maximal inhibition (IC50) required 11 nM.

In turn, `N#Cc1cnc2c(Br)cc(NCc3cn(CCN4CCOCC4)cn3)cc2c1Nc1ccc(F)c(Cl)c1` [Example 488] gave an IC50 of 41 nM.

`N#Cc1cnc2c(Cl)cc(NCc3cncn3CCN3CCOCC3)cc2c1Nc1ccc(F)c(Cl)c1` [Example 489] registered an IC50 of 62 nM.

`N#Cc1cnc2c(Cl)cc(NCc3cn(CCN4CCOCC4)cn3)cc2c1Nc1ccc(F)c(Cl)c1` [Example 490]: the IC50 worked out at 33 nM.

Take `N#Cc1cnc2c(Cl)cc(NCc3cn(CC(F)(F)F)nn3)cc2c1Nc1ccc(F)c(Cl)c1` [Example 491]: it took 23 nM to reach half-maximal inhibition (IC50).
